We go through eleven molecules from PubChem BioAssay (NCI).

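Tested at 5 concentrations; 48 h exposure; 96-well plates; endpoints linearly interpolated, else capped at highest concentration. GI50: concentration for 50% inhibition of growth. The concentration for full growth arrest is given as TGI.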

Some test systems named below: UACC-257 melanoma; A549 NSCLC; A498 renal; SF-268 CNS; UACC-62 melanoma; MCF7 breast; CAKI-1 renal; HS 578T breast; SNB-19 CNS; COLO 205 colon.
What all share (experiment): inhibition of tumour cell growth, NCI panel, 48 h

With `Cc1cc[c-]cc1.Fc1c[c-]c(-c2ccccn2)c(F)c1.N#CCC[PH+](CCC#N)c1ccccc1.[Pt+2]`, the GI50 in the assay with UACC-257 melanoma is 1.9 µM; with A549 NSCLC, 3.57 µM; with A498 renal, 2.18 µM; with SF-268 CNS it was 3.19 µM; in the assay on UACC-62 melanoma, 1.79 µM; in the assay on MCF7 breast, 2.68 µM. The GI50 in the assay on CAKI-1 renal was 2.7 µM; in the assay on HS 578T breast, 3.39 µM; with SNB-19 CNS, 4.91 µM. For the same molecule, the TGI came to 4.41 µM in the assay with UACC-257 melanoma; 71.8 µM in the assay with A549 NSCLC; 8.5 µM in the assay with A498 renal; 39.5 µM with SF-268 CNS; 4.43 µM in the assay on UACC-62 melanoma; 17.6 µM with MCF7 breast. For the same molecule, the figures for the TGI with CAKI-1 renal, with HS 578T breast and in the assay with SNB-19 CNS were 14.1 µM, 43.5 µM and more than 100 µM, respectively.
With `CCN(CC)c1ccc(/C=C/C(=O)c2cccc(NS(C)(=O)=O)c2)cc1`, the GI50 was 92.5 µM in the assay on UACC-257 melanoma; more than 100 µM in the assay on A549 NSCLC; 5.39 µM in the assay on A498 renal; 18.5 µM with SF-268 CNS; 5.28 µM with COLO 205 colon; 3.72 µM with MCF7 breast. Moreover, the results for the GI50 with CAKI-1 renal, in the assay on HS 578T breast and in the assay on SNB-19 CNS were 7.97 µM, 19.3 µM and 86 µM, respectively. In addition, the TGI with UACC-257 melanoma, with A549 NSCLC, in the assay with A498 renal, in the assay on SF-268 CNS, with COLO 205 colon and in the assay on MCF7 breast was more than 100 µM throughout. The TGI in the assay on CAKI-1 renal, in the assay on HS 578T breast and with SNB-19 CNS was more than 100 µM each time.
Take `Cn1cc(-c2csc(-c3cn(CCN4CCOCC4)c4ccc(F)cc34)n2)c2cccnc21`: the GI50 was 4.54 µM in the assay with UACC-257 melanoma; 3.18 µM in the assay on A549 NSCLC; 5.66 µM with A498 renal; 2.82 µM in the assay with SF-268 CNS; 2.08 µM with COLO 205 colon; 2.06 µM in the assay with UACC-62 melanoma. Besides, the GI50 was 1.94 µM in the assay on MCF7 breast, 3.75 µM in the assay on HS 578T breast and 3.93 µM in the assay on SNB-19 CNS. For the same molecule, the TGI in the assay on UACC-257 melanoma was 28.9 µM; with A549 NSCLC, 17.5 µM; in the assay on A498 renal, 48.5 µM; in the assay on SF-268 CNS it was more than 100 µM; in the assay with COLO 205 colon, 5.23 µM; with UACC-62 melanoma, 5.34 µM. The TGI was 6.55 µM in the assay with MCF7 breast, more than 100 µM in the assay on HS 578T breast and more than 100 µM in the assay on SNB-19 CNS.
`O=S(=O)(NC(=S)Nc1ccccc1)c1ccc(N2N=C3c4ccccc4CC3C2c2ccc(Cl)cc2)cc1` (stereo not given): the GI50 in the assay on UACC-257 melanoma is 29.5 µM; in the assay on A549 NSCLC, 20.9 µM; in the assay with SF-268 CNS it was 20.7 µM; with COLO 205 colon, 21.6 µM; in the assay with UACC-62 melanoma, 18.3 µM; in the assay with MCF7 breast it was 23.5 µM. Further, the GI50 was 26.1 µM in the assay with CAKI-1 renal, 30 µM with HS 578T breast and 21.8 µM in the assay with SNB-19 CNS. Also, the TGI stood at 70.5 µM with UACC-257 melanoma; 51.7 µM in the assay on A549 NSCLC; 51.1 µM with SF-268 CNS; 44.3 µM with COLO 205 colon; 38.8 µM in the assay on UACC-62 melanoma; 54.3 µM with MCF7 breast. Besides, the TGI was found to be 91.4 µM in the assay with CAKI-1 renal, 68.2 µM in the assay on HS 578T breast and 46.4 µM in the assay on SNB-19 CNS.
For the molecule `COc1cc(C/C=C/c2ccccc2)c(OC)cc1O`, the TGI with UACC-257 melanoma was more than 100 µM; in the assay with A549 NSCLC it was more than 100 µM; with A498 renal it was more than 100 µM; with SF-268 CNS, 59.4 µM; with COLO 205 colon it was 45.5 µM; in the assay on UACC-62 melanoma it was 37.7 µM. Besides, the figures for the TGI in the assay on CAKI-1 renal, in the assay on HS 578T breast and in the assay with SNB-19 CNS were 65.7 µM, 90 µM and more than 100 µM, respectively.
`C#CCOCn1cnc2ncnc(Cl)c21`: the TGI in the assay with UACC-257 melanoma, in the assay on A549 NSCLC, with A498 renal, with SF-268 CNS, with COLO 205 colon and in the assay on UACC-62 melanoma was more than 100 µM in each case. In addition, the TGI in the assay on CAKI-1 renal and in the assay with SNB-19 CNS was more than 100 µM in each case.
`CSc1nc(Cl)c(Br)c(Nc2c[nH]c(=O)[nH]c2=O)n1`: the TGI with UACC-257 melanoma is 38.7 µM; in the assay on A549 NSCLC, 89.5 µM; with A498 renal, 35.7 µM; in the assay with COLO 205 colon, 32.9 µM; in the assay on UACC-62 melanoma, 31.4 µM; with MCF7 breast, more than 100 µM. Further, the values for the TGI in the assay on CAKI-1 renal and with SNB-19 CNS were 3.22 µM and 44.9 µM, respectively.
For the molecule `N/C(=N\OC(=O)NC(Cl)=C(Cl)Cl)c1cc(C(F)(F)F)cc(C(F)(F)F)c1`, the TGI was 31.1 µM in the assay on UACC-257 melanoma; 30.4 µM in the assay on A549 NSCLC; 32.3 µM with A498 renal; 45.6 µM with SF-268 CNS; 33.4 µM in the assay on COLO 205 colon; more than 100 µM in the assay with MCF7 breast. Besides, the TGI in the assay with CAKI-1 renal came to 33.8 µM; in the assay on SNB-19 CNS it was 50.5 µM.
In the case of `O=C(CCCn1ccnc1[N+](=O)[O-])NCCn1cnc([N+](=O)[O-])c1`, the TGI in the assay with UACC-257 melanoma, in the assay on A549 NSCLC, with SF-268 CNS, in the assay with COLO 205 colon, with UACC-62 melanoma and in the assay on MCF7 breast was more than 100 µM throughout. The TGI with CAKI-1 renal, in the assay on HS 578T breast and in the assay with SNB-19 CNS was more than 100 µM each time.
In the case of `CC(=O)OCCC/C(=C\c1ccc2ccccc2c1)[N+](=O)[O-]`, the GI50 in the assay with UACC-257 melanoma was 1.81 µM; in the assay on A549 NSCLC it was 3.41 µM; with A498 renal, 1.04 µM; with SF-268 CNS it was 1.67 µM; in the assay with COLO 205 colon, 1.57 µM; with UACC-62 melanoma it was 1.47 µM. Also, the GI50 with CAKI-1 renal is 1.5 µM; in the assay on HS 578T breast, 1.09 µM; in the assay on SNB-19 CNS it was 1.77 µM. Further, the TGI with UACC-257 melanoma amounted to 3.54 µM; in the assay on A549 NSCLC, 31.2 µM; in the assay with A498 renal, 2.39 µM; with SF-268 CNS, 3.43 µM; with COLO 205 colon it was 3.43 µM; in the assay on UACC-62 melanoma, 2.98 µM. Also, the TGI in the assay on CAKI-1 renal worked out at 3.28 µM; in the assay with HS 578T breast it was 5.19 µM; in the assay with SNB-19 CNS, 3.28 µM.
With `CNC1=C(C)C(=O)C(C)=C(C(C)(C)CC(=O)n2cc(F)c(=O)[nH]c2=O)C1=O`, the TGI in the assay on UACC-257 melanoma, with A549 NSCLC, with A498 renal, in the assay with SF-268 CNS, with COLO 205 colon and in the assay with UACC-62 melanoma was more than 100 µM throughout. In addition, the TGI with CAKI-1 renal and with SNB-19 CNS was more than 100 µM throughout.
